Data on two compounds can be found in patent US6468555B1, “Pesticidal compositions” (Sumitomo Chemical Company, Limited, priority 1999, dated 2002).

For one assay, the system named is Aphis gossypii. Briefly: Pesticidal test against Aphis gossypii on potted cabbage plants (foliar spray). The assay is classed as in vivo. Particulars: 2.0 ppm active ingredient, 20 adults set free per pot; for Number of surviving aphids per pot After 3 days: 3 days after spraying; for Number of surviving aphids per pot After 6 days: 6 days after spraying. The source says: Pesticidal Test Against Aphis gossypii
Twenty adults of Aphis gossypii were set free on three-leafed cabbage plants in pots. These plants were uniformly sprayed using a spray gun with a water dilution in a prescribed concentration of a commercial product of compound A (trade name: Lano 10EC; available from Sumitomo Chemical Co., Ltd.), a commercial product of compound B (trade name: Baroque Flowable; available from Yashima Chemical Industry Co., Ltd.), or a mixture of the commercial product of compound A and the commercial product of compound B. After air drying, the pots were placed in a greenhouse. On a predetermined day after the application, the cabbage plants were examined for the number of aphids surviving thereon.

A further assay has as its system Bemisia argentifolii. Briefly: Pesticidal test against Bemisia argentifolii first-instar nymphs on cabbage seedlings (foliar spray). The assay is classed as in vivo. Particulars: 16 days after application. The source says: Pesticidal Test Against Bemisia argentifolii
Cabbage seedlings infested with first-instar nymphs of Bemisia argentifollii were uniformly sprayed using a spray gun with a water dilution in a prescribed concentration of a commercial product of compound A (trade name: Lano 10EC; available from Sumitomo Chemical Co., Ltd.), a commercial product of compound B (trade name: Baroque Flowable; available from Yashima Chemical Industry Co., Ltd.), or a mixture of the commercial product of compound A and the commercial product of compound B. After air drying, each of the cabbage seedlings was placed in a net cage and kept in a greenhouse. After 16 days from the application, the number of emergent adults was determined.

Each structure is given as a SMILES string.

Regarding `CCOc1cc(C(C)(C)C)ccc1C1COC(c2c(F)cccc2F)=N1` (stereo not drawn) [Compound B, 2-(2,6-difluorophenyl)-4-(2-ethoxy-4-tert-butyl-phenyl)-2-oxazoline], in the assay on Aphis gossypii, the “Number of surviving aphids per pot After 3 days” value is 11 and the “Number of surviving aphids per pot After 6 days” value was 25. Also, in the assay with Bemisia argentifolii (0.4 ppm, 125 nymphs used), the “Number of emergent adults” value is listed as 51.

Regarding `CC(COc1ccc(Oc2ccccc2)cc1)Oc1ccccn1` (stereo not drawn) [Compound A, 4-phenoxyphenyl 2-(2-pyridyloxy)propyl ether], in the assay on Aphis gossypii, the “Number of surviving aphids per pot After 3 days” value is reported as 45 and the “Number of surviving aphids per pot After 6 days” value is listed as 11. In addition, the “Number of emergent adults” value in the assay with Bemisia argentifolii (0.2 ppm, 108 nymphs used) was determined as 13.
